Test results published in patent publication US6838472B2, “Substituted urea retinoid agonists” (Syntex (U.S.A.) LLC, priority 2001, dated 2005).
Several values for one entry are separate records, joined by “and”; a condition that tells them apart may be missing. Identical values can stand only once.

melting point | SMILES
188 to 193 °C and 188.2 to 193 °C | Cc1cc(CN(C(=O)Nc2ccc(C(=O)O)cc2)c2ccc3c(c2)C(C)(C)CCC3(C)C)no1 [Compound 57, 4-[3-(5-methyl-isoxazol-3-ylmethyl)-3-(5,5,8,8-tetramethyl-5,6,7,8-tetrahydro-naphthalen-2-yl)-ureido]-benzoic acid]
82 to 85 °C | CCOCCN(C(=O)Nc1ccc(C(=O)O)cc1)c1ccc2c(c1)C(C)(C)CCC2(C)C [Compound 33, 4-[3-(2-ethoxy-ethyl)-3-(5,5,8,8-tetramethyl-5,6,7,8-tetrahydro-naphthalen-2-yl)-ureido]-benzoic acid]
158 to 162 °C | CC1(C)CCC(C)(C)c2cc(N(CCCCOCc3ccccc3)C(=O)Nc3ccc(C(=O)O)cc3)ccc21 [Compound 41, 4-[3-(4-benzyloxy-butyl)-3-(5,5,8,8-tetramethyl-5,6,7,8-tetrahydro-naphthalen-2-yl)-ureido]-benzoic acid]
167 to 170 °C and 167.1 to 170.1 °C | CC1(C)CCC(C)(C)c2cc(N(Cc3cccs3)C(=O)Nc3ccc(C(=O)O)cc3)ccc21 [Compound 31, 4-[3-(5,5,8,8-tetramethyl-5,6,7,8-tetrahydro-naphthalen-2yl)-3-thiophen-2-ylmethyl-ureido]-benzoic acid]
124 to 125 °C | CC1(C)CCC(C)(C)c2cc(N(CCCCO)C(=O)Nc3ccc(C(=O)O)cc3)ccc21 [Compound 71, 4-[3-(4-hydroxy-butyl)-3-(5,5,8,8-tetramethyl-5,6,7,8-tetrahydro-naphthalen-2-yl)-ureido]-benzoic acid]
223 to 225 °C and 223 to 224.9 °C | CC1(C)CCC(C)(C)c2cc(N(CCc3ccccc3)C(=O)Nc3ccc(C(=O)O)cc3)ccc21 [Compound 5, 4-[3-phenethyl-3-(5,5,8,8-tetramethyl-5,6,7,8-tetrahydro-naphthalen-2-yl)-ureido]-benzoic acid]
201 to 202 °C | CCCCCN(C(=O)Nc1ccc2c(c1)C(C)(C)CCC2(C)C)c1ccc(C(=O)O)cc1 [Compound 42, 4-[1-pentyl-3-(5,5,8,8-tetramethyl-5,6,7,8-tetrahydro-naphthalen-2-yl)-ureido]-benzoic acid]

The next lines start with the molecule.

SMILES | melting point
CCN(C(=O)N(CC)c1ccc2c(c1)C(C)(C)CCC2(C)C)c1ccc(C(=O)O)cc1 [Compound 73, 4-[1,3-diethyl-3-(5,5,8,8-tetramethyl-5,6,7,8-tetrahydro-naphthalen-2-yl)-ureido]-benzoic acid] | 169 to 172 °C
CC1(C)CCC(C)(C)c2cc(N(Cc3ccc(F)cc3)C(=O)Nc3ccc(C(=O)O)cc3)ccc21 [Compound 19, 4-[3-(4-fluorobenzyl)-3-(5,5,8,8-tetramethyl-5,6,7,8-tetrahydro-naphthalen-2-yl)-ureido]-benzoic acid] | 143 to 146 °C and 143.1 to 145.9 °C
CCCCCN(C(=O)Nc1ccc(C(=O)O)cn1)c1ccc2c(c1)C(C)(C)CCC2(C)C [Compound 49, 6-[3-pentyl-3-(5,5,8,8-tetramethyl-5,6,7,8-tetrahydro-naphthalen-2-yl) -ureido]-nicotinic acid] | 175 to 179.5 °C
COc1ccc(CN(C(=O)Nc2ccc(C(=O)O)cc2)c2ccc3c(c2)C(C)(C)CCC3(C)C)cc1 [Compound 23, 4-[3-(4-methoxybenzyl)-3-(5,5,8,8-tetramethyl-5,6,7,8-tetrahydro-naphthalen-2-yl)-ureido]-benzoic acid] | 117 to 121 °C and 116.8 to 120.8 °C
CC1(C)CCC(C)(C)c2cc(N(Cc3ccc(Cl)cc3)C(=O)Nc3ccc(C(=O)O)cc3)ccc21 [Compound 21, 4-[3-(4-chlorobenzyl)-3-(5,5,8,8-tetramethyl-5,6,7,8-tetrahydro-naphthalen-2-yl)-ureido]-benzoic acid] | 126 to 133.1 °C and 126 to 133 °C
